Reference: patent publication US11702404B2, “GLP-1R modulating compounds” (priority 2019, dated 2023)
pEC50: −log10 of the molar value. Where two headings read alike, the source gives them in different places.

Legend:
GLP-1R = GLP-1R (Homo sapiens, UniProt P43220); test: GLP-1R activation: cAMP increase in CHO cells stably expressing GLP-1R; format: cell-based; details: for pEC50: cAMP increase, CHO cells stably expressing GLP-1R, 10 point dose response, 30 minutes incubation, read-out: EC50
[1] = Microsomal stability, human liver microsomes (predicted hepatic clearance); details: predicted from in vitro microsomal stability data

GLP-1R, sequence (P43220 24-463): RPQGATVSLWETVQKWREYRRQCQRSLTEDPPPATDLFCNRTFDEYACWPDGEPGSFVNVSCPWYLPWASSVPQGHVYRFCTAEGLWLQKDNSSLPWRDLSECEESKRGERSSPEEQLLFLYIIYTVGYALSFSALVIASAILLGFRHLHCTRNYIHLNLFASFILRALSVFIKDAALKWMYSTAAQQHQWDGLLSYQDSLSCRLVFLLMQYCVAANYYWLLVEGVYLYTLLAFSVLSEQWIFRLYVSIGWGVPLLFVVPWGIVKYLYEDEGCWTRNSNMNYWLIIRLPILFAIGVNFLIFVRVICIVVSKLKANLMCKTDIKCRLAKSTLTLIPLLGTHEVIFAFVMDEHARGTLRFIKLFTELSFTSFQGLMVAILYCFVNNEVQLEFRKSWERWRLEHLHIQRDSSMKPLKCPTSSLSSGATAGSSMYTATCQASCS

Question: Which results are given for `N#Cc1ccc(COc2cccc(-c3ccc(Cc4nc5ccc(C(=O)O)cc5n4[C@@H]4CCOC4)c(F)c3)n2)c(F)c1` [Example 225, (R)-2-(4-(6-((4-cyano-2-fluorobenzyl)oxy)pyridin-2-yl)-2-fluorobenzyl)-1-(tetrahydrofuran-3-yl)-1H-benzo[d]imidazole-6-carboxylic acid]?
Answer: pEC50 (GLP-1R): 7.88; Predicted Hepatic Clearance (Pred. Cl.) [1]: 0.21 L/h/kg

Question: With `COCCn1c(Cc2ccc(-c3cccc(OCc4cccc5c4OCO5)n3)cc2F)nc2ccc(C(=O)O)cc21` [Example 362, 2-(4-(6-(benzo[d][1,3]dioxol-4-ylmethoxy)pyridin-2-yl)-2-fluorobenzyl)-1-(2-methoxyethyl)-1H-benzo[d]imidazole-6-carboxylic acid] as the molecule, how does the pEC50 (GLP-1R) read?
Answer: The pEC50 was 7.66.

Question: And the “Predicted Hepatic Clearance (Pred. Cl.)” value [1]?
Answer: The value was 0.97 L/h/kg.

Question: With `COCCn1c(Cc2ccc(-c3cccc(OCc4ccc(C#N)cc4F)n3)cc2Br)nc2ccc(C(=O)O)cc21` [Example 239, 2-(2-bromo-4-(6-((4-cyano-2-fluorobenzyl)oxy)pyridin-2-yl)benzyl)-1-(2-methoxyethyl)-1H-benzo[d]imidazole-6-carboxylic] as the molecule, how does the pEC50 (GLP-1R) read?
Answer: The pEC50 was 8.13.

Question: What about the “Predicted Hepatic Clearance (Pred. Cl.)” value [1] of the same molecule?
Answer: Its value is less than 0.11 L/h/kg.

Question: With `N#Cc1ccc(COc2nc(-c3ccc(Cc4nc5c(F)cc(C(=O)O)cc5n4C[C@@H]4CCO4)cc3F)ncc2F)c(F)c1` [Example 666] as the molecule, how does the pEC50 (GLP-1R) read?
Answer: Its pEC50 is 9.29.

Question: What about the “Predicted Hepatic Clearance (Pred. Cl.)” value [1] of the same molecule?
Answer: The value was 0.20 L/h/kg.

Question: With `COCCn1c(Cc2ccc(-c3cccc(OCc4ccc(C#Cc5cncnc5)cc4F)n3)cc2F)nc2ccc(C(=O)O)cc21` [Example 842, 2-(2-fluoro-4-(6-((2-fluoro-4-(pyrimidin-5-ylethynyl)benzyl)oxy)pyridin-2-yl)benzyl)-1-(2-methoxyethyl)-1H-benzo[d]imidazole-6-carboxylic acid] as the molecule, how does the pEC50 (GLP-1R) read?
Answer: Its pEC50 is 8.33.

Question: And the “Predicted Hepatic Clearance (Pred. Cl.)” value [1]?
Answer: The value was 0.11 L/h/kg.

Question: With `COCCn1c(Cc2ccc(-c3cccc(OCc4ccc(C#N)cc4OCC(F)(F)F)n3)cc2F)nc2ccc(C(=O)O)cc21` [Example 236, 2-(4-(6-((4-cyano-2-(2,2,2-trifluoroethoxy)benzyl)oxy)pyridin-2-yl)-2-fluorobenzyl)-1-(2-methoxyethyl)-1H-benzo[d]imidazole-6-carboxylic acid] as the molecule, how does the pEC50 (GLP-1R) read?
Answer: Its pEC50 is 6.51.

Question: And the “Predicted Hepatic Clearance (Pred. Cl.)” value [1]?
Answer: The value was less than 0.11 L/h/kg.

Question: Which results are given for `N#Cc1ccc(COc2cccc(-c3cc(F)c(Cc4nc5ccc(C(=O)O)cc5n4CCOC4CCC4)cc3F)n2)c(F)c1` [Example 628]?
Answer: pEC50 (GLP-1R): 7.87; Predicted Hepatic Clearance (Pred. Cl.) [1]: 0.19 L/h/kg

Question: With `COCCn1c(Cc2ccc(-c3csnc3OCc3ccc(C#N)cc3F)cc2F)nc2ccc(C(=O)O)cc21` [Example 88, 2-(4-(3-((4-cyano-2-fluorobenzyl)oxy)isothiazol-4-yl)-2-fluorobenzyl)-1-(2-methoxyethyl)-1H-benzo[d]imidazole-6-carboxylic acid] as the molecule, how does the pEC50 (GLP-1R) read?
Answer: Its pEC50 is 6.53.

Question: What about the “Predicted Hepatic Clearance (Pred. Cl.)” value [1] of the same molecule?
Answer: Its value is 0.51 L/h/kg.

Question: With `COCCn1c(Cc2cc(F)c(-c3ccc(F)c(OCc4ccc(C(F)(F)F)cc4F)n3)cc2F)nc2c(F)cc(C(=O)O)cc21` [Example 761] as the molecule, how does the pEC50 (GLP-1R) read?
Answer: The pEC50 was 9.29.

Question: What about the “Predicted Hepatic Clearance (Pred. Cl.)” value [1] of the same molecule?
Answer: The value was 0.11 L/h/kg.

Question: What does the source list for `COCCn1c(Cc2cc(F)c(-c3cccc(OCc4ccc(C#N)c(F)c4F)n3)cc2F)nc2ccc(C(=O)O)cc21` [Example 859]?
Answer: pEC50 (GLP-1R): 7.94; Predicted Hepatic Clearance (Pred. Cl.) [1]: 0.11 L/h/kg

Question: What does the source list for `CCn1cncc1Cn1c(Cc2ccc(-c3cccc(OCc4ccc(C#N)cc4F)n3)c(F)c2)nc2c(F)cc(C(=O)O)cc21` [Example 452, 2-(4-(6-((4-cyano-2-fluorobenzyl)oxy)pyridin-2-yl)-3-fluorobenzyl)-1-((1-ethyl-1H-imidazol-5-yl)methyl)-4-fluoro-1H-benzo[d]imidazole-6-carboxylic acid]?
Answer: pEC50 (GLP-1R): 9.80; Predicted Hepatic Clearance (Pred. Cl.) [1]: 0.43 L/h/kg

Question: With `O=C(O)c1ccc2nc(Cc3cc(F)c(-c4cccc(OCc5ccc(Cl)cc5F)n4)cc3F)n(C[C@@H]3CCO3)c2c1` [Example 663] as the molecule, how does the pEC50 (GLP-1R) read?
Answer: The pEC50 was 9.29.

Question: And the “Predicted Hepatic Clearance (Pred. Cl.)” value [1]?
Answer: Its value is 0.11 L/h/kg.

Question: With `COCCn1c(Cc2ccc(-c3cccc(OCc4ccc(C#N)cc4OC4CC4)n3)cc2F)nc2ccc(C(=O)O)cc21` [Example 346, 2-(4-(6-((4-cyano-2-cyclopropoxybenzyl)oxy)pyridin-2-yl)-2-fluorobenzyl)-1-(2-methoxyethyl)-1H-benzo[d]imidazole-6-carboxylic acid] as the molecule, how does the pEC50 (GLP-1R) read?
Answer: The pEC50 was 7.02.

Question: And the “Predicted Hepatic Clearance (Pred. Cl.)” value [1]?
Answer: Its value is 0.47 L/h/kg.

Question: With `COCCn1c(Cc2ccc(-c3cccc(OCc4ccc5c(c4)OC(F)(F)O5)n3)cc2F)nc2ccc(C(=O)O)cc21` [Example 250, 2-(4-(6-((2,2-difluorobenzo[d][1,3]dioxol-5-yl)methoxy)pyridin-2-yl)-2-fluorobenzyl)-1-(2-methoxyethyl)-1H-benzo[d]imidazole-6-carboxylic acid] as the molecule, how does the pEC50 (GLP-1R) read?
Answer: Its pEC50 is 7.93.

Question: What about the “Predicted Hepatic Clearance (Pred. Cl.)” value [1] of the same molecule?
Answer: The value was less than 0.11 L/h/kg.

Question: Which results are given for `COCCn1c(Cc2ccc(-c3cccc(OCc4ccccc4NS(C)(=O)=O)n3)cc2F)nc2ccc(C(=O)O)cc21` [Example 516, 2-(2-fluoro-4-(6-((2-(methylsulfonamido)benzyl)oxy)pyridin-2-yl)benzyl)-1-(2-methoxyethyl)-1H-benzo[d]imidazole-6-carboxylic acid]?
Answer: pEC50 (GLP-1R): 5.61; Predicted Hepatic Clearance (Pred. Cl.) [1]: <0.11 L/h/kg

Question: With `COC(CN)Cn1c(Cc2ccc(-c3cccc(OCc4ccc(C#N)cc4F)n3)cc2F)nc2ccc(C(=O)O)cc21` (single isomer, unassigned) [Example 339, 1-(3-amino-2-methoxypropyl)-2-(4-(6-((4-cyano-2-fluorobenzyl)oxy)pyridin-2-yl)-2-fluorobenzyl)-1H-benzo[d]imidazole-6-carboxylic acid] as the molecule, how does the pEC50 (GLP-1R) read?
Answer: Its pEC50 is 6.25.

Question: What about the “Predicted Hepatic Clearance (Pred. Cl.)” value [1] of the same molecule?
Answer: The value was less than 0.11 L/h/kg.

Question: With `N#Cc1ccc(COc2nccc(-c3ccc(Cc4nc5ccc(C(=O)O)cc5n4CC45CC(CO4)C5)cc3F)n2)c(F)c1` [Example 626] as the molecule, how does the pEC50 (GLP-1R) read?
Answer: Its pEC50 is 7.62.

Question: What about the “Predicted Hepatic Clearance (Pred. Cl.)” value [1] of the same molecule?
Answer: The value was 0.47 L/h/kg.

Question: With `N#Cc1ccc(COc2cccc(-c3ccc(Cc4nc5ccc(C(=O)O)cc5n4CC4(CO)COC4)c(F)c3)n2)c(F)c1` [Example 326, 2-(4-(6-((4-cyano-2-fluorobenzyl)oxy)pyridin-2-yl)-2-fluorobenzyl)-1-((3-(hydroxymethyl)oxetan-3-yl)methyl)-1H-benzo[d]imidazole-6-carboxylic acid] as the molecule, how does the pEC50 (GLP-1R) read?
Answer: The pEC50 was 8.17.

Question: What about the “Predicted Hepatic Clearance (Pred. Cl.)” value [1] of the same molecule?
Answer: Its value is 0.74 L/h/kg.

Question: Which results are given for `C[C@@H](O)Cn1c(Cc2cc(F)c(-c3cccc(OCc4ccc(C#N)cc4F)n3)cc2F)nc2ccc(C(=O)O)cc21` [Example 724]?
Answer: EC50 (GLP-1R; EC50 (nM)): 15.1 nM; Predicted Hepatic Clearance (Pred. Cl.) [1]: 0.40 L/h/kg

Question: With `COCCn1c(Cc2cc(F)c(-c3cccc(OCc4ccc(-c5cc[nH]c(=O)c5)cc4F)n3)cc2F)nc2ccc(C(=O)O)cc21` [Example 912] as the molecule, how does the pEC50 (GLP-1R) read?
Answer: Its pEC50 is 7.82.

Question: And the “Predicted Hepatic Clearance (Pred. Cl.)” value [1]?
Answer: The value was 0.11 L/h/kg.

Question: With `COCCNC(=O)C(Cn1c(Cc2ccc(-c3cccc(OCc4ccc(C#N)cc4F)n3)cc2F)nc2ccc(C(=O)O)cc21)OC` (single isomer, unassigned) [Example 335, 2-(4-(6-((4-cyano-2-fluorobenzyl)oxy)pyridin-2-yl)-2-fluorobenzyl)-1-(2-methoxy-3-((2-methoxyethyl)amino)-3-oxopropyl)-1H-benzo[d]imidazole-6-carboxylic acid] as the molecule, how does the pEC50 (GLP-1R) read?
Answer: Its pEC50 is 6.86.

Question: What about the “Predicted Hepatic Clearance (Pred. Cl.)” value [1] of the same molecule?
Answer: Its value is 0.29 L/h/kg.

Question: With `COCCn1c(Cc2cc(F)c(-c3cccnc3OCc3ccc(C#N)cc3F)cc2F)nc2ccc(C(=O)O)cc21` [Example 211, 2-(4-(2-((4-cyano-2-fluorobenzyl)oxy)pyridin-3-yl)-2,5-difluorobenzyl)-1-(2-methoxyethyl)-1H-benzo[d]imidazole-carboxylic acid] as the molecule, how does the pEC50 (GLP-1R) read?
Answer: Its pEC50 is 6.90.

Question: What about the “Predicted Hepatic Clearance (Pred. Cl.)” value [1] of the same molecule?
Answer: Its value is 0.49 L/h/kg.

Question: With `O=C(O)c1ccc2nc(Cc3ccc(-c4ccc(F)c(OCc5ccc(Cl)cc5F)c4)cc3F)n(CCO)c2c1` [Example 476, 2-[[4-[3-[(4-chloro-2-fluoro-phenyl)methoxy]-4-fluoro-phenyl]-2-fluoro-phenyl]methyl]-3-(2-hydroxyethyl)benzimidazole-5-carboxylic acid] as the molecule, how does the pEC50 (GLP-1R) read?
Answer: Its pEC50 is 6.44.

Question: What about the “Predicted Hepatic Clearance (Pred. Cl.)” value [1] of the same molecule?
Answer: The value was 0.13 L/h/kg.

Question: What does the source list for `COCCn1c(Cc2c(F)cc(-c3cccc(OCc4ccc(C(F)F)cc4F)n3)c(F)c2F)nc2ccc(C(=O)O)cc21` [Example 750]?
Answer: pEC50 (GLP-1R): 8.90; Predicted Hepatic Clearance (Pred. Cl.) [1]: 0.25 L/h/kg

Question: With `COCCn1c(Cc2ccc(-c3cccc(OCc4ccc(C#N)cc4F)n3)cc2F)nc2ccc(C(=O)O)c(F)c21` [Example 364, 2-(4-(6-((4-cyano-2-fluorobenzyl)oxy)pyridin-2-yl)-2-fluorobenzyl)-7-fluoro-1-(2-methoxyethyl)-1H-benzo[d]imidazole-6-carboxylic acid] as the molecule, how does the pEC50 (GLP-1R) read?
Answer: Its pEC50 is 8.75.

Question: What about the “Predicted Hepatic Clearance (Pred. Cl.)” value [1] of the same molecule?
Answer: Its value is 0.23 L/h/kg.

Question: What does the source list for `COCCn1c(Cc2ccc(-c3ccnc(OCc4ccc(C#N)cc4F)n3)c(F)c2)nc2c(F)cc(C(=O)O)cc21` [Example 558, 2-(4-(2-((4-cyano-2-fluorobenzyl)oxy)pyrimidin-4-yl)-3-fluorobenzyl)-4-fluoro-1-(2-methoxyethyl)-1H-benzo[d]imidazole-6-carboxylic acid]?
Answer: pEC50 (GLP-1R): 7.65; Predicted Hepatic Clearance (Pred. Cl.) [1]: 0.24 L/h/kg

Question: With `COCCn1c(Cc2ccc(-c3cccc(OCc4cccc5c4OCCC5)n3)cc2F)nc2ccc(C(=O)O)cc21` [Example 241, 2-(4-(6-(chroman-8-ylmethoxy)pyridin-2-yl)-2-fluorobenzyl)-1-(2-methoxyethyl)-1H-benzo[d]imidazole-6-carboxylic acid] as the molecule, how does the pEC50 (GLP-1R) read?
Answer: The pEC50 was 7.45.

Question: What about the “Predicted Hepatic Clearance (Pred. Cl.)” value [1] of the same molecule?
Answer: The value was 0.59 L/h/kg.

Question: With `N#Cc1ccc(COc2nccc(-c3ccc(Cc4nc5ccc(C(=O)O)cc5n4Cc4ncco4)cc3F)n2)c(F)c1` [Example 622] as the molecule, how does the pEC50 (GLP-1R) read?
Answer: Its pEC50 is 8.57.

Question: And the “Predicted Hepatic Clearance (Pred. Cl.)” value [1]?
Answer: Its value is 0.38 L/h/kg.

Question: Which results are given for `COCCn1c(Cc2ccc(-c3cccc(OCc4cccc(C(C)(C)C)c4)n3)cc2F)nc2ccc(C(=O)O)cc21` [Example 155, 2-(4-(6-((3-(tert-butyl)benzyl)oxy)pyridin-2-yl)-2-fluorobenzyl)-1-(2-methoxyethyl)-1H-benzo[d]imidazole-6-carboxylic acid]?
Answer: pEC50 (GLP-1R): 7.14; Predicted Hepatic Clearance (Pred. Cl.) [1]: 0.33 L/h/kg
